Experiment [1] has as its target Protein cereblon/Tubulin beta (Homo sapiens) (UniProt P68371+Q9H4B7+Q13509+P04350+Q3ZCM7+P07437+Q13885+Q9BVA1+Q9BUF5+Q96SW2+A6NNZ2). Put plainly: Protac activity at CRBN/beta-tubulin in human HeLa cells assessed as reduction in beta-tubulin level at 10 to 1000 nM incubated for 48 hrs by immunoblotting analysis. Type of experiment: cell-based. The conditions noted are these: dose 10-1000 nM.

In another experiment the test system is HepG2. Put plainly: Inhibition of DNA synthesis in human HepG2 cells. The format is functional, cell-based.
For experiment [2], the system named is A549. Put plainly: Induction of cell cycle arrest in human A549 cells assessed as accumulation of cells at G0/G1 phase at 0.002 uM incubated for 24 hrs by PI staining based flow cytometry analysis (reference value: 66.75%). The format is functional.
Experiment [3] concerns A549. Put plainly: Antitumor activity against human A549 cells xenografted in nude mouse assessed as decrease in tumor weight at 15 mg/kg, ip administered once every 2 days for 23 days by Vernier caliper method. The conditions noted are these: time 23.0 day. Type of experiment: functional, organism-based.

Activity and inhibition data for one molecule are collected here from ChEMBL document CHEMBL5518186, “Discovery of the cereblon-recruiting tubulin PROTACs effective in overcoming Taxol resistance in vitro and in vivo” (Eur J Med Chem, 2024).

Structures are written as SMILES. Active and inactive are the calls of the source. The calls are words filed in the database; no cut-off is given here.

With `COc1ccc(/C=C\c2cc(OC)c(OC)c(OC)c2)cc1OC(=O)CCCNc1cccc2c1C(=O)N(C1CCC(=O)NC1=O)C2=O` (centres undefined), the result (in experiment [1]; in the experiment on A549 [3]) was Active. For the same molecule, the inhibition entry with HepG2 was “Dose-Dependent Effect”. Also, the Activity in the experiment on A549 [2] stood at 57.32%.
